In patent publication US20100143270A1, “THERAPEUTIC COTININE COMPOSITIONS” (University of Louisville Research Foubdation, priority 2007, published 2010):
Entries after “also recorded” stand apart in the source; their conditions may differ.

How the values were obtained:
[1] = system: THP-1 cells; experiment: IL-10 release by LPS-stimulated THP-1 cells (ELISA); assay type: cell-based
Procedure: (§1) FIG. 11. The anti-inflammatory potential of cotinine is a GSK-3β-dependent but NF-κB-independent phenomenon. THP-1 Blue cells are stably transfected with a reporter plasmid expressing secreted embryonic alkaline phosphatase (SEAP) gene under the control of a NF-κB-inducible promoter. […] Cell-free supernatants were harvested by centrifugation and relative expression levels of SEAP (reflecting NF-κB; THP-1 Blue; circles) and IL-10 (THP-1; bars) were determined by spectrophotometric analysis of SEAP activity and ELISA, respectively.
(§2) THP-1 Blue cells are monocyte-like cells that have been stably transfected with a reporter plasmid expressing secreted embryonic alkaline phosphatase (SEAP) gene under the control of a NF-κB-inducible promoter. […] Cell-free supernatants were harvested by centrifugation and relative expression levels of NF-κB and IL-10 were determined by spectrophotometric analysis of SEAP activity and ELISA, respectively.
Levels of phosphorylated Akt and phoshorylated GSK-3β following cotinine (0-100 ng ml^−1) and/or E. coli LPS (1 μg ml^−1) treatment were determined by western blot using whole-cell lysates (20 μg) with probing for Akt using a phospho-specific Akt (Ser473) antibody; probing for GSK-3β using a phospho-specific GSK-3β (Ser9; denoted pGSK-3β) antibody; with the blots stripped and re-probed for total p38 to ensure equivalent loading. Antibodies were purchased from Cell Signaling, Beverly, Mass. Blots were visualized by enhanced chemiluminescence. The importance of the PI3K-dependent anti-inflammatory pathway in cotinine-induced inflammatory suppression was also established by pharmacological inhibition of PI3K and GSK-3β using the PI3K antagonists LY294002 (25 μM; Calbiochem®, San Diego, Calif.) and wortmannin (100 nM, Calbiochem); and the GSK-3β inhibitor SB216763 (6 μM; Sigma). […] Therefore, cells were also analyzed for cotinine-induced PI3K activation by, assaying the ability of PI3K to produce PIP3. Levels of PIP3 were determined by ELISA using a competitive inhibition assay (Echelon Bioscience, Salt Lake City, Utah). […]

[2] = system: P. gingivalis-stimulated human monocytes; experiment: TNF release by P. gingivalis-stimulated human monocytes (ELISA); assay type: cell-based; conditions: for TNF release compared to cells stimulated with P. gingivalis alone: 2 h pre-treatment with nicotine or cotinine, P. gingivalis MOI=10 for 20 h, dose-dependent
[3] = system: LPS-stimulated monocytes; experiment: Pro-inflammatory cytokine release by LPS-stimulated human monocytes (ELISA); assay type: cell-based
Procedure: FIGS. 3A-3E. […] Monocytes were pre-treated with cotinine (1000 ng/ml) for 2 hours then stimulated with purified LPS (0 to 1×10^4 ng/ml) for 24 hours.
FIGS. 6A-6E. […] Cells were pre-treated with nicotine or cotinine (100 and 1000 ng/ml, respectively) for 2 hours then stimulated with purified LPS (0 to 1×10^4 ng/ml) for 24 hours. […] FIG. 6A provides data for IFNγ; FIG. 6B provides data for IL-1β, FIG. 6C provides data for IL-6, FIG. 6D provides data for TNF-α, and FIG. 6E provides data for IL-12/IL-23 p40.
Cotinine inhibited the production and release of multiple pro-inflammatory cytokines by monocytes stimulated with Toll-like receptor (TLR)-agonists in a dose-dependent manner. Cells were pre-treated with cotinine for 2 hours then stimulated with a TLR-agonist (purified LPS, 0 to 1×10^4 ng ml^−1) for 24 hours.
Inflammatory response of cotinine-exposed monocytes to P. gingivalis and LPS: In an initial series of experiments, we determined how physiological doses of nicotine and cotinine influenced levels of TNF secreted by monocytes stimulated with LPS. Human monocytes were pre-treated for 90 minutes with nicotine (1 to 1,000 ng/ml; Sigma-Aldrich, Inc.) or cotinine (1 to 10,000 ng/ml; Sigma-Aldrich, Inc.), then stimulated with purified E. coli K-12 LPS (0 to 10 μg/ml; InVivoGen™, San Diego, Calif.). TNF concentrations in 24 hr supernatants were measured by ELISA (eBioscience, San Diego, Calif.). Subsequently, the concentrations of multiple cytokines in 24 hr supernatants of cotinine pre-incubated (1000 ng/ml) LPS-([…]) stimulated monocytes were measured by ELISA (IFN-γ (PBL Biomed Labs, Piscataway, N.J.), IL-1β, IL-6, TNF, IL-10 (all eBioscience), and IL-12/IL-23 p40 (R&D Systems, Minneapolis, Minn.).
Primary monocytes were pre-treated with nicotine (0-100 ng ml^−1) or cotinine (0-1000 ng ml^−1) then stimulated with the Gram negative periodontal pathogen P. gingivalis (MOI=0-10); purified E. coli K-12 LPS (0-1 μml^−1; InVivoGen™, San Diego, Calif.); or purified P. gingivalis 33277 LPS for 20 h. Primary monocytes were also pre-treated with cotinine (100 ng ml^−1) then stimulated with increasing doses of LPS for 20 h. Cell-free supernatants were harvested by centrifugation and cytokine levels (TNF, IL-6, IL-10, IL-12/IL-23 p40, as appropriate) were determined by ELISA (eBioscience, San Diego, Calif. or R&D Systems, Minneapolis, Minn.).

[4] = system: LPS-stimulated monocytes; experiment: IL-10 release by LPS-stimulated human monocytes (ELISA); assay type: cell-based
[5] = system: NF-κB; experiment: NF-κB-inducible SEAP reporter in LPS-stimulated THP-1 Blue cells; assay type: cell-based; conditions: cotinine 100 ng ml^−1 2 h, LPS 1 μg ml^−1 24 h
Procedure: as §1, §2

[6] = system: THP-1 or THP-1 Blue cells; experiment: Viability of THP-1 or THP-1 Blue cells; assay type: cell-based; conditions: cotinine 100 ng ml^−1
[7] = system: PI3K; experiment: PI3K activation in monocytes measured as PIP3 (competitive ELISA); assay type: cell-based, human; conditions: LPS 1 μg ml^−1 60 minutes
[8] = system: Akt (Ser473); experiment: Phosphorylated Akt western blot in monocytes; assay type: cell-based, human; conditions: P. gingivalis stimulated monocytes; PI3K-dependent
Procedure: (§3) Antibodies were purchased from Cell Signaling, Beverly, Mass. Blots were visualized by enhanced chemiluminescence. The importance of the PI3K-dependent anti-inflammatory pathway in cotinine-induced inflammatory suppression was also established by pharmacological inhibition of PI3K and GSK-3β using the PI3K antagonists LY294002 (25 μM; Calbiochem®, San Diego, Calif.) and wortmannin (100 nM, Calbiochem); and the GSK-3β inhibitor SB216763 (6 μM; Sigma). Activated PI3K produces PIP3 that, in turn, activates downstream signaling components of the PI3K pathway. Therefore, cells were also analyzed for cotinine-induced PI3K activation by, assaying the ability of PI3K to produce PIP3. Levels of PIP3 were determined by ELISA using a competitive inhibition assay (Echelon Bioscience, Salt Lake City, Utah). The specific PI3K inhibitor LY294002 was used at 25 μM and served as a control to block PI3K activity.

[9] = system: GSK-3β (Ser9); experiment: Phosphorylated GSK-3β western blot in monocytes; assay type: cell-based, human; conditions: P. gingivalis stimulated monocytes
Procedure: as §3

[10] = cited from earlier work
[11] = system: nicotinic receptors in the brain; conditions: cited from earlier work
[12] = system: striatal dopamine release; conditions: cited from earlier work
[13] = system: neutrophils; conditions: cited from earlier work
[14] = cited from earlier work; for Terminal elimination half-life: in vivo
[15] = system: primary monocytes; experiment: Viability of primary monocytes
Procedure: Monocytes were pre-treated for 2 h with nicotine (triangles) or cotinine (squares) then stimulated with P. gingivalis (MOI=10) for 20 h. Cell-free supernatants were harvested by centrifugation and levels of TNF-α were determined by ELISA.
(A-E) Control monocytes (closed squares) and monocytes pre-treated with cotinine (100 ng ml^−1) for 2 hours (open squares) were stimulated with P. gingivalis 33277 LPS (0-10^5 ng ml^−1) for 24 hours. Cell-free supernatants were harvested by centrifugation and levels of pro-inflammatory cytokines (A-E) and IL-10 (E) were determined by ELISA. Data are the arithmetic mean±s.d. of 3 experiments.

[16] = cotinine 100 ng ml^−1 2 h, P. gingivalis 33277 LPS 0-10^5 ng ml^−1 24 h
[17] = cotinine 1000 ng/ml 2 h, LPS 0 to 1×10^4 ng/ml 24 h

## Cn1cc(C2=C(c3ccc(Cl)cc3Cl)C(=O)NC2=O)c2ccccc21 [SB216763]
[1]; GSK-3β inhibitor SB216763 6 μM, LPS
  IL-10 production: enhances IL-10 production in response to LPS
[1]; SB216763 versus cotinine 10 ng ml^−1, p<0.05
  Potency as inducer of IL-10 relative to cotinine: significantly less potent inducer of IL-10 than cotinine; also recorded: less potent than even low doses of cotinine

## CN1C(=O)CC[C@H]1c1cccnc1 [cotinine, (S)-1-methyl-5-(3-pyridinyl)-2-Pyrrolidinone]
[2]
  TNF release compared to cells stimulated with P. gingivalis alone: equally as effective as nicotine; also recorded: produce significantly less TNF-α
[3]; [16]
  IL-1β release: dramatically suppresses
  IL-6 release: dramatically suppresses
  IL-12/IL-23 p40 subunit release: dramatically suppresses
  TNF-α release: dramatically suppresses
[3]; [17]
  IFN-γ production: suppressed
  IL-1β production: suppressed
  IL-6 production: suppressed
  IL-12/IL-23 p40 production: suppressed
  TNF-α production: suppressed
[4]; cotinine 0 to 10,000 ng/ml 2 h, purified LPS 24 h
  IL-10 release: increased the production and release; also recorded: enhanced production; also recorded: increases the release
[4]; cotinine 100 ng ml^−1 2 h, P. gingivalis 33277 LPS 24 h
  IL-10 production: enhancing production; also recorded: augments IL-10 production
[5]
  LPS-induced NF-κB (SEAP activity): not affected; also recorded: not influenced
[1]; cotinine pre-treatment 2 h, LPS 1 μg ml^−1 24 h
  IL-10 production: augment IL-10 production
[6]
  Viability of THP-1 or THP-1 Blue cells compared to LPS alone: no statistically significant effect
[7]
  PIP3 levels (PI3K activation): potently augments the activation of PI3K; also recorded: increased PIP3 levels
[8]
  Levels of phosphorylated (active) Akt: enhances
[9]
  Levels of phosphorylated (inactive) GSK3-β: augments
[10]; cotinine infusions in humans
  Vasoactivity (heart rate, blood pressure, skin temperature): may not be vasoactive
[10]; in vivo
  Addictiveness: non-addictive
[10]; levels as high as 10 times that attained from cigarette smoking
  Safety of administration to humans: safe
[11]
  Upregulation of nicotinic receptor expression in the brain: does not appear to upregulate
[12]
  Striatal dopamine release: evokes striatal dopamine release
[13]
  Release of free radicals from neutrophils: suppresses the release of free radicals from neutrophils
[14]; humans
  Systemic concentration relative to nicotine: ten-fold
[14]
  Terminal elimination half-life: sixteen
  Mean concentration in smokers: 200 to 500 ng/mL
[14]; second-hand smokers
  Systemic levels in second-hand smokers: 1 to 15 ng/mL
[15]; cotinine 0 to 10^5 ng ml^−1
  Viability of primary monocytes compared to P. gingivalis alone: no statistically significant effect
[15]; cotinine 100 ng ml^−1
  Viability of primary monocytes compared to LPS alone: no statistically significant effect

## CN1CCC[C@H]1c1cccnc1 [nicotine, (S)-3-(1-methyl-2-pyrrolidinyl)pyridine, reference compound]
[2]
  TNF release compared to cells stimulated with P. gingivalis alone: inhibits the release of TNF; also recorded: produce significantly less TNF-α
[7]
  PIP3 levels (PI3K activation): increased PIP3 levels
[14]
  Terminal elimination half-life: two
  Mean concentration in smokers: ~30 ng/mL
[14]; metabolized by the liver
  Fraction of nicotine converted to cotinine: up to 80%

## CNC1(C)C2CCC(C2)C1(C)C (centres unmarked) [mecamylamine]
[2]; mecamylamine 10 μM pre-incubation
  Effect of non-selective nAChR antagonist on cotinine-induced inflammatory suppression: nAChR-dependent phenomenon
